SMILES strings stand for the structures.

In this experiment the test system is Plasmodium falciparum. The experiment is described as follows: GSK_TCMDC: Inhibition of Plasmodium falciparum 3D7 in whole erythrocytes, using parasite LDH activity as an index of growth. In kind it is functional, organism-based. The conditions noted are these: Plasmodium falciparum, 3D7.
Regarding `CCN1CCC(N(Cc2ccc(-c3ccc(C(F)(F)F)cc3)cc2)C(=O)Cn2c(CCc3cccc(F)c3F)cc(=O)c3ccccc32)CC1`, the XC50 was found to be 832 nM.

Regarding `CCNC(C)(C)CN(Cc1ccc(-c2ccc(C(F)(F)F)cc2)cc1)C(=O)Cn1c(SCc2ccc(F)cc2)nc(=O)c2c1CCC2`, the XC50 came out at 991 nM.

`CCN1CCN(c2ccc(Nc3c4ccccc4nc4ccccc34)cc2)CC1` came in with an XC50 of 718 nM.

In the case of `CCN(CC)Cc1cc(Nc2ccnc3cc(Cl)ccc23)ccc1O`, the XC50 worked out at 160 nM.

In the case of `Cc1[nH]c(C)c(-c2ccc(-c3ccc(Cl)cc3)cc2)c(=O)c1Cl`, the XC50 was 215 nM.

The compound `CC(C)(C)c1ccc(CN2CCC(NC(=O)c3ccc(-c4cccc(F)c4)s3)CC2)cc1` came in with an XC50 of 1090 nM.

For the compound `O=c1c2ccc(F)cc2sn1-c1ccc(Cl)cc1`, the XC50 amounted to 1150 nM.

In the case of `Cn1cnc2c(Nc3ccncc3)nc(-c3ccc4c(c3)OCO4)nc21`, the XC50 worked out at 1110 nM.

Turning to `COc1cc(NC(=O)Nc2cccc3ccccc23)c(OC)cc1Cl`, the XC50 was 484 nM.

As to `CCOC(=O)c1ccc(NC(=O)N(Cc2ccc(-c3cccc(CN4CCNCC4)c3)cc2)C2CCN(Cc3ccccc3)CC2)cc1`, the XC50 amounted to 748 nM.

The compound `COc1ccc(O)cc1/C=N/Nc1ccnc2cc(Cl)ccc12` yielded an XC50 of 544 nM.

Consider `O=C(NCCN1CCOCC1)c1ccc(CNC(=O)c2ccc(O)c(-c3ccc(Cl)c(Cl)c3)c2)cc1`, for which the XC50 amounted to 929 nM.

Compound `O=c1cc(NCCCCNCc2cccc(Br)c2)[nH]c2ccccc12` showed an XC50 of 729 nM.

`CN(C)c1ccc(C2(c3ccccc3)N=C(N)N(CCCc3ccccc3)C2=O)cc1` (stereo not drawn) yielded an XC50 of 971 nM.

Take `COc1cccc(C2CCN(CCN3CCC(NC(=O)c4ccc(-c5ccc(C#N)cc5)cc4)CC3)CC2)c1`: the XC50 turned out to be 699 nM.

For the compound `CN1CCN(CCCN(Cc2cccc(-c3ccc(CNCc4ccc5c(c4)OCO5)cc3)c2)C(=O)Nc2ccccc2)CC1`, the XC50 turned out to be 681 nM.

Compound `CC(C)CNC(=O)c1cncc(-c2ccc(CNC3Cc4ccccc4C3)cc2)c1` gave an XC50 of 698 nM.

Regarding `Oc1ccc2c(CNCCc3ccccc3)c(O)ccc2c1CNCCc1ccccc1`, the XC50 worked out at 104 nM.

Compound `c1ccc2cc3c(Nc4ccc(N5CCCCC5)cc4)ccnc3cc2c1` returned an XC50 of 739 nM.

Compound `COc1ccccc1CN1CCC(CNC(=O)c2cc(-c3cccc(C(F)(F)F)c3)cs2)C1` (stereo not drawn) registered an XC50 of 1310 nM.

Turning to `O=C(Cc1ccc(NC(=O)c2ccc(O)c(-c3ccc(Cl)c(Cl)c3)c2)cc1)NCCc1ccc(Cl)c(Cl)c1`, the XC50 came out at 717 nM.

The compound `CCCCCCCc1c(C)nc2ccccc2c1O` yielded an XC50 of 206 nM.

For the compound `Cc1cccc2nc(-c3ccc(-c4ccc(NC(=O)Nc5cccc(C#N)c5)cc4)cc3)[nH]c12`, the XC50 amounted to 114 nM.

As for `Fc1ccc2[nH]c(-c3cccc(-c4ccc(CN5CCC(CCN6CCCCC6)CC5)cc4)c3)nc2c1`, the XC50 is 142 nM.

`O=C(NCC(c1ccc(C(F)(F)F)cc1)N1CCCC1)c1cc(-c2ccncc2)c(-c2cccc(O)c2)o1` (stereo not drawn) gave an XC50 of 1060 nM.

`COc1cc(CCNc2nc(NCc3cccc4ccccc34)nc(N3CCC(N)CC3)n2)ccc1O`: the XC50 was 787 nM.

The compound `COCCNCc1nc(-c2ccc3c(Nc4ccc(Cl)cc4F)ccnc3c2)cs1` gave an XC50 of 1080 nM.

As to `N=C(N)c1ccc(-c2cc3ccc(C(=N)N)cc3[nH]2)cc1`, the XC50 is 59.9 nM.

The compound `COc1cccc(-c2cnc(N)c(-c3nc4ccc(F)cc4[nH]3)c2)c1` came in with an XC50 of 850 nM.

As for `O=C(Nc1cccc(Cl)c1)c1cnc(N2CCN(c3ccncc3)CC2)c(Cl)c1`, the XC50 was found to be 963 nM.

The compound `Oc1ccc2nc(NCCCc3ccccc3)nc(NCCCc3ccccc3)c2c1` had an XC50 of 398 nM.

`O=C(O)c1cc(C(F)(F)F)co1`: the XC50 amounted to 825 nM.

As for `O=C(NCCN1CCCCC1)c1ccc(CNC(=O)c2ccc(O)c(-c3cccc(C(F)(F)F)c3)c2)cc1`, the XC50 was 886 nM.

In turn, `O=C(/C=C/c1ccc(Cl)c(Cl)c1)NCCCCCN1CCC(NC(=O)Nc2ccc(F)c(F)c2)CC1` gave an XC50 of 842 nM.

On to `CCCc1cc(Cc2cnc(N)nc2N)cc2c1OC(C)(C)C2`, for which the XC50 was determined as 1080 nM.

As to `Cc1cccc2nc(-c3ccc(-c4ccc(CN5CCC(CCN6CCCCC6)CC5)cc4)cc3)[nH]c12`, the XC50 was 144 nM.

`O=C1CC(C(=O)Nc2cccc(-c3cccc(-c4nc5ccccc5[nH]4)c3)c2)c2ccccc2N1` (stereo not drawn) gave an XC50 of 980 nM.

`COc1cc2ccccc2cc1OCCCN1CCN(CC(c2ccc(F)cc2)N2CCN(C(C)C)CC2)CC1` (stereo not drawn): the XC50 stood at 749 nM.

`CCCNC(=O)c1ccnc(-c2ccc(CNC3Cc4ccccc4C3)cc2)c1` registered an XC50 of 940 nM.

The compound `COc1cc(CN/C(=N/c2ccc(-c3ccccc3)cc2)Nc2ccc(C#N)cc2O)cc(OC)c1` yielded an XC50 of 718 nM.

Consider `COc1cc2c(C3CCN(CC4CCN(C(=O)/C=C/c5ccc(Cl)c(Cl)c5)CC4)CC3)c[nH]c2cn1`, for which the XC50 stood at 730 nM.

Consider `C=CCc1ccc(C2CCN(CCCCNC(=O)c3ccc(NC(=O)c4ccc(Cl)cc4)cc3)CC2)cc1`, for which the XC50 was 1120 nM.

Compound `FC(F)(F)c1ccc2[nH]c(-c3ccc(-c4cccc(CNCC5CCCO5)c4)cc3)nc2c1` (stereo not drawn) displayed an XC50 of 250 nM.

With `CCCN(CCC)C(=O)c1cc(C(=O)N[C@@H](Cc2ccccc2)[C@H](O)CNC(C)(C)c2cccc(C(F)(F)F)c2)cc(N2CCCCS2(=O)=O)c1`, the XC50 is 36.2 nM.

In turn, `CCC1CN2CCc3c([nH]c4ccccc34)C2CC1CC1NCCc2cc(OC)c(OC)cc21` (stereo not drawn) gave an XC50 of 836 nM.

Consider `CCCc1cc(Cc2cnc(N)nc2N)cc2c1OC(C)C2C` (stereo not drawn), for which the XC50 came out at 673 nM.

Compound `COc1cc(NC(=O)c2sc(-c3ccc(Cl)cc3)cc2NC(=O)CN2CC[C@@H](O)C2)ccc1OCCN1CCCC1` returned an XC50 of 802 nM.

`CCCNCc1ccc(-c2ccc(CN(Cc3ccc4c(c3)OCO4)C(=O)Cc3cccnc3)cc2)nc1` yielded an XC50 of 862 nM.

`Clc1cccc(C=NNc2nc(=Nc3ccccc3)[nH]c(=Nc3ccccc3)[nH]2)c1` returned an XC50 of 844 nM.

Consider `CC(C)CNC(=O)c1cncc(-c2ccc(CN(C)C3CCN(C)CC3)cc2)c1`, for which the XC50 was determined as 878 nM.

Turning to `OC(CNC1CCCCC1)Cn1c2ccccc2c2ccccc21` (stereo not drawn), the XC50 came to 991 nM.

Compound `COc1ccc(Oc2ccc(-c3c(C)[nH]c(C)c(Cl)c3=O)cc2)cc1` came in with an XC50 of 135 nM.

Compound `CC(C)(C)c1ccc2[nH]c(-c3ccc(C(=O)NC4CCN(Cc5ccccc5)CC4)s3)nc2c1` had an XC50 of 359 nM.

Compound `CSc1ccc(CN2CCC(NC(=O)c3ccc(-c4cccc(C(F)(F)F)c4)s3)CC2)cc1` showed an XC50 of 1220 nM.

`CC(=O)Nc1ccc(OCCCCCOc2ccc(NC(C)=O)cc2Cl)c(Cl)c1` gave an XC50 of 833 nM.

In the case of `Clc1ccc(CNCCCCCCCNCc2ccc(Cl)c(Cl)c2)cc1Cl`, the XC50 was 372 nM.

Regarding `O=C(Nc1cccc(C2=NCCCN2)c1)Nc1cccc(C2=NCCCN2)c1`, the XC50 is 561 nM.

`COc1cccc2cc(C(=O)N[C@@H](CC(C)C)C(=O)N[C@H](/C=N/NC(=O)Cc3cccnc3)CCc3ccccc3)oc12` showed an XC50 of 951 nM.

In turn, `Cc1c(CCNC(=O)CCCN2CC(C)CC(C)C2)c2ccccc2n1C` (stereo not drawn) had an XC50 of 1270 nM.

As to `CCCCN1CC[C@@H](CCC(O)c2cc(OCCC)nc3ccc(OC)cc23)[C@@H](CC)C1` (stereo partly drawn), the XC50 was found to be 356 nM.

With `Cn1ncc2c3c(CCN4CCC(NCc5cc6c(cn5)OCCO6)CC4)c(Cl)cnc3ccc21`, the XC50 is 775 nM.

Turning to `c1ccc(CNc2nc(NCCc3c[nH]cn3)nc(NCc3cccc4ccccc34)n2)cc1`, the XC50 amounted to 1110 nM.

With `Cc1cc(N[C@@H](Cc2ccccc2)C(=O)NCCCOC(C)C)nc(NCC2CCCCC2)n1`, the XC50 worked out at 875 nM.

`N#Cc1cc(C(=O)c2cc(Cl)ccc2O)cn(-c2cccc(C(F)(F)F)c2)c1=O` came in with an XC50 of 1130 nM.

`C=CCOc1ccc(-c2c(C)[nH]c(C)c(Br)c2=O)cc1`: the XC50 is 283 nM.

`Cc1[nH]cnc1CSCCN/C(=N\C#N)NCCCCCCCCN/C(=N/C#N)NCCSCc1nc[nH]c1C` yielded an XC50 of 1270 nM.

Take `CCOCc1cnc(C)nc1CNC(=O)c1c(C)[nH]c2ccc(C)cc12`: the XC50 worked out at 1010 nM.

Take `COc1ccc(NCc2cccc(-c3cccc(CNCCc4ccccc4)c3)c2)cc1`: the XC50 is 1050 nM.

For `O=S(=O)(NC1=NCCC1)c1cccc(Nc2nc(C(F)(F)F)nc3ccccc23)c1`, the XC50 was found to be 945 nM.

`COc1cccc(NC(=O)Nc2ccc(C)c(-c3ccc(C(=O)Nc4ccncc4)cc3)c2)c1` showed an XC50 of 520 nM.

`CCCCc1ccc(NC(=O)Nc2ccc3c(c2)CCNCC3)cc1` yielded an XC50 of 585 nM.

For `COc1c(C2CCN(CCCCNC(=O)c3cccc(-c4ccc(C(F)(F)F)cc4)c3)CC2)ccc2c1CCCC2`, the XC50 turned out to be 777 nM.

Compound `O=C(Nc1ccc(SC(F)(F)F)cc1)Nc1ccnc2ccccc12` displayed an XC50 of 746 nM.

Compound `Cc1cc(N)nc2ccc(-c3ccc(CN)cc3)cc12` gave an XC50 of 621 nM.

For `CN1CCC(C(=O)N(Cc2ccc(-c3ccc(CNCCc4ccc(S(C)(=O)=O)cc4)cn3)cc2)C2Cc3ccccc3C2)CC1`, the XC50 turned out to be 665 nM.

Compound `COc1ccccc1-n1ccnc1SCC(=O)Nc1cc(C(F)(F)F)ccc1Cl` returned an XC50 of 9.3 nM.

The compound `Cc1cc(=O)[nH]c(-n2nc(C)cc2NC(=O)C2(c3ccc(Cl)cc3)CCCC2)n1` showed an XC50 of 288 nM.

Take `COc1ccccc1NC(=O)NC1CCN(CCCCCNC(=O)/C=C/c2ccc(Cl)c(Cl)c2)CC1`: the XC50 was determined as 746 nM.

Compound `Cc1ccc(CNC(=O)[C@H](CC(C)C)Nc2cc(C)nc(NCc3ccccc3C)n2)cc1` registered an XC50 of 952 nM.

As to `CN1CCN(c2ccc(Nc3nccc(-c4cnn5ncccc45)n3)cc2Cl)CC1`, the XC50 came out at 833 nM.

The compound `Cc1ccccc1CN1CCCN(Cc2ccc(C(=O)Nc3ccc(Cl)cc3)cc2)CC1` displayed an XC50 of 944 nM.

For `Cc1ccc2c(O)c([N+](=O)[O-])c(O)nc2c1`, the XC50 turned out to be 422 nM.

Take `CC(C)CCNc1nc(NCCCc2ccccc2)c2cc(O)ccc2n1`: the XC50 was 166 nM.

In the case of `CN1CCC(Oc2ccc(CN3CC[C@H](NC(=O)c4ccc(Cl)c(Cl)c4)C3)c3ccccc23)C1` (stereo partly drawn), the XC50 came out at 876 nM.

`Cc1ccc2nc(C)n(C3CCN(C(=O)C4(c5ccccc5)CC4)CC3)c2c1` gave an XC50 of 821 nM.

Regarding `CCc1ccc(NC(=O)c2ccc(CN3CCCN(Cc4ccc(C)s4)CC3)cc2)cc1`, the XC50 was determined as 1150 nM.

Consider `COc1ccc(O)cc1Cc1cnc2nc(N)nc(N)c2c1C`, for which the XC50 amounted to 8.25 nM.

`Nc1nc(N)c2cc(Sc3ccc4ccccc4c3)ccc2n1` registered an XC50 of 17.1 nM.
